In PubChem BioAssay (NCI):
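Assay format: 96-well plates, 48-hour exposure. At the GI50, growth is halved. TGI: concentration producing complete growth inhibition.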

What was measured:
Experiment in all cases: NCI anticancer screen, dose series, 48 h
[1] = system: UO-31 renal
[2] = system: NCI/ADR-RES ovarian
[3] = system: COLO 205 colon
[4] = system: SK-MEL-5 melanoma
[5] = system: K-562 leukemia
[6] = system: M14 melanoma
[7] = system: TK-10 renal
[8] = system: SK-OV-3 ovarian
[9] = system: MOLT-4 leukemia
[10] = system: NCI-H226 lung

SMILES | TGI [1] [µM] | TGI [2] [µM] | TGI [3] [µM] | TGI [4] [µM] | TGI [5] [µM] | TGI [6] [µM] | TGI [7] [µM] | TGI [8] [µM] | TGI [9] [µM] | TGI [10] [µM] | GI50 [1] [µM] | GI50 [3] [µM] | GI50 [4] [µM] | GI50 [5] [µM] | GI50 [6] [µM] | GI50 [7] [µM] | GI50 [8] [µM] | GI50 [9] [µM] | GI50 [10] [µM] | GI50 [2] [µM]
CC(C)(C)c1ccc(O)c(CN(Cc2cc(C(C)(C)C)ccc2O)c2ccccc2)c1 | 29.2 | 37.6 | 30.9 | 28.5 | 31.9 | 28.2 | 31.5 | 84.8 | 37.8 |  |  |  |  |  |  |  |  |  |  | 
CCCCOC(=O)NC(=O)c1cn(C2CCCCC2)c(=O)[nH]c1=O | 46.2 |  | > 100 |  | > 100 | > 100 | > 100 | 41.4 | > 100 | 46.3 |  |  |  |  |  |  |  |  |  | 
N.N.O=C([O-])P(=O)([O-])[O-].[Na+].[Pt+4] | > 100 |  | > 100 | > 100 | > 100 | > 100 | > 100 | > 100 | > 100 |  | > 100 | > 100 | > 100 | > 100 | > 100 | > 100 | > 100 | > 100 |  | 
COc1ncc(-c2ccc3ncnc(Nc4cccc(Cl)c4)c3c2)cc1NS(=O)(=O)CCN1CCOCC1 |  |  |  |  |  | > 100 |  |  |  | > 100 |  |  |  |  | 0.755 |  |  |  | 0.659 | 
c1cc2c(ncc3cscc32)s1 | > 100 | > 100 | > 100 | > 100 | > 100 | > 100 | > 100 |  | > 100 | > 100 |  |  |  |  |  |  |  |  |  | 
CCO/N=C(/N)c1ncn(Cc2ccccc2)c1NCC(OCC)OCC | > 100 |  | > 100 | > 100 | > 100 | > 100 | > 100 | > 100 | > 100 | > 100 |  |  |  |  |  |  |  |  |  | 
Cc1[nH]c2ccccc2c1C1Cc2ccccc2N1C(=O)/C(Cl)=C/c1ccccc1 (configuration not stated) | > 100 |  | > 100 | > 100 | > 100 | > 100 | > 100 | > 100 | > 100 | > 100 |  |  |  |  |  |  |  |  |  | 
CN1C(=O)c2ccccc2NC(=O)C12O[C@@H]2c1cccc(O)c1 (some centres not stated) | > 100 | > 100 | > 100 | > 100 |  | > 100 | > 100 |  | > 100 |  |  |  |  |  |  |  |  |  |  | 
CCOc1ccc2c(c1)[n+]([O-])c(-c1nc3ccccc3s1)c(N)[n+]2[O-] | 96.3 |  | > 100 | 93.8 | > 100 | > 100 | > 100 | > 100 | > 100 | > 100 |  |  |  |  |  |  |  |  |  | 
N#C/C(=C\c1cc2ccccc2c2ccccc12)c1ccccc1 | 57.7 |  | 10.6 | 19.7 | 13.7 | 30 | > 58.9 | 39 | 28 | > 100 |  |  |  |  |  |  |  |  |  | 
OC/C=C(\I)CCCOCOCc1ccccc1 | > 100 |  | > 100 | 54.5 | > 100 | > 100 | > 100 | > 100 | 13.1 | > 100 |  |  |  |  |  |  |  |  |  | 
COc1ccc(/C(Cl)=C(\C=O)c2ccc([N+](=O)[O-])cc2)cc1 | 56.2 |  | 40.4 | 39.9 | > 37.5 | > 74.6 | > 73.6 | 76.7 | 7.24 | 46.9 |  |  |  |  |  |  |  |  |  | 
CC(C)c1ccc(C(c2ccc(OCC(=O)O)cc2)c2ccc(C(C)C)cc(=O)c2O)c(O)c(=O)c1 |  |  | > 100 | 9.14 | 35.5 | 11 | 42.8 | 41.9 | 30.7 |  |  |  |  |  |  |  |  |  |  | 
COc1ccc2nc3cc(Cl)ccc3c(NCCN)c2c1 | 2.95 |  | 3.14 |  |  | 3.44 | 3.18 | 3.26 | 3.68 | > 100 | 1.5 | 1.53 |  |  | 1.82 | 1.76 | 1.81 | 1.25 | 4.75 | 
COc1cc2c(c(OC)c1OC)-c1c(cc3c(c1OC)OCO3)C1OC2C(C)C1C (configuration not stated) (tested in a mixture with another compound) | > 100 |  | > 100 | > 100 | > 100 | > 100 | > 100 | > 100 | 70.4 | > 100 |  |  |  |  |  |  |  |  |  | 
C=C1CC[C@@H]2[C@](C)(COC(C)=O)[C@H](OC(C)=O)CC[C@@]2(C)[C@@H]1CC(Nc1ccc(S(=O)(=O)Nc2ncccn2)cc1)C1=CCOC1=O (some centres not stated) | 2.97 | 5.28 | 3.8 | 3.85 | 11.7 | 3.98 | 6.03 | 18.3 | 8.37 |  | 1.51 | 1.78 | 1.9 | 1.73 | 1.44 | 2.77 | 6.27 | 2.27 |  | 1.83
COC(=O)C(=O)C(C(=O)C=C(C)C)C(=O)C(=O)Nc1ccc(C)cc1C (configuration not stated) | > 100 |  | > 100 | > 100 | > 100 | > 100 | > 100 | > 100 | > 100 | > 100 |  |  |  |  |  |  |  |  |  | 
CC(C)N1CN(C(C(=O)N[C@@H]2C(=O)N3C2SC(C)(C)C3C(=O)O)c2ccccc2)CSC1=S (some centres not stated) | > 100 |  | > 100 | > 100 | > 100 | > 100 | > 100 | > 100 | > 100 |  |  |  |  |  |  |  |  |  |  | 
CCc1ccc(Nc2ccc([N+](=O)[O-])cc2[N+](=O)[O-])cc1 | > 100 |  |  | > 100 | > 100 | > 100 | > 100 | > 100 | > 100 | 99.8 |  |  |  |  |  |  |  |  |  | 
COc1ccc(/C=C\c2cc(OC)c(OC)c(OC)c2)cc1OC(=O)NCCN(C)C | > 63.2 |  | 4.69 | 0.0474 | 23.7 | > 35 | > 100 |  | < 0.0494 | 0.0464 |  | 0.187 |  |  |  | > 47 |  |  |  | 
Cn1c2ccccc2c2c3[nH]c(=O)[nH]c(=O)c3c3c4ccccc4n(C)c3c21 |  | 17 | > 100 |  |  | > 100 | 16.5 | 5.79 |  | 5.37 |  | 2.44 |  |  | 2.43 | 1.91 | 1.75 |  | 1.66 | 2.89
